The target of one assay is T1, mGlu7 receptor (Homo sapiens, UniProt Q14831).
T1 construct: expressed in transfected cells; host or cells: HEK 293 cells
The experiment in a line: mGlu7 PAM assay (Ca2+ response, concentration response). It is filed as cell-based. To be noted: confirmed hits of virtual screening; for EC50: concentration response, read-out: mGlu7 PAM pEC50 (converted).

The subject of the next assay is mGlu1 to mGlu8 receptor. The experiment in a line: mGlu receptor panel selectivity assays (activation or inactivation). It is filed as cell-based. Particulars: up to concentration cutoffs of 10 μM. The procedure: Active hits from the VS were sourced from the Janssen corporate compound collection, no new synthesis was performed at this time, and batch purity information is provided in the Supporting Information (Table S5). The selectivity of the hits 1 to 4 was assessed by in vitro screening in the same panel of mGlu1 to mGlu8 receptor activation or inactivation assays.
(§1) Method for selectivity assays mGlu receptor panel selectivity assays: Ca2+ assays with human mGlu1, 3, 5, 7, or 8 receptor expressing HEK 293 cells were performed as reported in Lavreysen et al. (2013), except for a slight change in the procedure for mGlu5: cells expressing the human mGlu5 receptor were seeded at 40,000 cells/well in MW384. TwentyEfour hours after seeding, cells were incubated for 90 min in Ca2+ assay kit (Molecular Devices) dissolved in saline PBS supplemented with 5 mmol/L probenecid, pH 7.4 (f.c. 2.5 mmol/L probenecid as loading buffer was added on the cell layer without removal of medium) before measurements. Measurement of [35S]GTPγS binding to membranes from CHO cells expressing the rat mGlu6 receptor and membranes from L929sA cells expressing the human mGlu4 receptor were conducted also as described in Lavreysen et al.
(§2) Lavreysen H, et al. Pharmacological Characterization of JNJE40068782, a New Potent, Selective, and Systemically Active Positive Allosteric Modulator of the mGlu2 Receptor and Its

Assay [1] concerns mGlu7. Also on record: method as in PMID 17609420. Particulars: known reference compound, allosteric antagonist/NAM; cited from earlier work.
Another assay deals with T2, mGlu4 (Homo sapiens, UniProt Q14833).
T2 construct: expressed in transfected cells; host or cells: L929sA cells (membranes)
The experiment in a line: mGlu4 agonism assay ([35S]GTPγS binding to membranes). It is filed as biochemical. To be noted: selectivity panel; read-out: pEC50 in mGlu4 agonism assay (converted). The method, then: as §1, §2
On the technique in general: GTPγS is a poorly hydrolysed GTP analogue; its binding reports G protein activation.

The test system of assay [2] is mGlu7. The arrangement: method as in PMID 16339898. To be noted: known reference compound, agonist/PAM; cited from earlier work.

T1 sequence (Q14831 35-915): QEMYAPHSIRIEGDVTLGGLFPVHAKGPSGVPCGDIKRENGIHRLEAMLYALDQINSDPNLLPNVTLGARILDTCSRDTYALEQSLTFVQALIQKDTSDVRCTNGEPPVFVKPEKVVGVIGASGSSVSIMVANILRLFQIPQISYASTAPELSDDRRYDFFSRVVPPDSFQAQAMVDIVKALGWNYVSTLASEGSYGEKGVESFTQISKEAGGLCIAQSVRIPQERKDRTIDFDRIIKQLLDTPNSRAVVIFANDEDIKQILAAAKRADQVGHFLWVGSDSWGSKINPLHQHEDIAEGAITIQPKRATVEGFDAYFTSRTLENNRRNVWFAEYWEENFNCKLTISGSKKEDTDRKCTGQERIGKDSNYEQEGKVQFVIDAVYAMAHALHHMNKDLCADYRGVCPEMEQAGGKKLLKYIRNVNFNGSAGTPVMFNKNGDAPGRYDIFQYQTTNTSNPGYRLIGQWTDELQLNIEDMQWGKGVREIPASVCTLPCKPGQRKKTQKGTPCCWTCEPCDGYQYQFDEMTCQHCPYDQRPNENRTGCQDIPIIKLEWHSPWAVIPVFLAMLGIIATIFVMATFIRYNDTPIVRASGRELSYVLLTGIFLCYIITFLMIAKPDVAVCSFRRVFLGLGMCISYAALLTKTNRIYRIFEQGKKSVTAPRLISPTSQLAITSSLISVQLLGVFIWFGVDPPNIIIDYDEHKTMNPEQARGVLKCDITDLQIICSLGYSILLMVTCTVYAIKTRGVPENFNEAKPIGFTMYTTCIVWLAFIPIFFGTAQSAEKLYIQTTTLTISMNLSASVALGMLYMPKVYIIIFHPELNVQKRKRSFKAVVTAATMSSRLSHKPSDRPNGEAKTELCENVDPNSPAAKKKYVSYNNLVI
T2 sequence (Q14833 33-912): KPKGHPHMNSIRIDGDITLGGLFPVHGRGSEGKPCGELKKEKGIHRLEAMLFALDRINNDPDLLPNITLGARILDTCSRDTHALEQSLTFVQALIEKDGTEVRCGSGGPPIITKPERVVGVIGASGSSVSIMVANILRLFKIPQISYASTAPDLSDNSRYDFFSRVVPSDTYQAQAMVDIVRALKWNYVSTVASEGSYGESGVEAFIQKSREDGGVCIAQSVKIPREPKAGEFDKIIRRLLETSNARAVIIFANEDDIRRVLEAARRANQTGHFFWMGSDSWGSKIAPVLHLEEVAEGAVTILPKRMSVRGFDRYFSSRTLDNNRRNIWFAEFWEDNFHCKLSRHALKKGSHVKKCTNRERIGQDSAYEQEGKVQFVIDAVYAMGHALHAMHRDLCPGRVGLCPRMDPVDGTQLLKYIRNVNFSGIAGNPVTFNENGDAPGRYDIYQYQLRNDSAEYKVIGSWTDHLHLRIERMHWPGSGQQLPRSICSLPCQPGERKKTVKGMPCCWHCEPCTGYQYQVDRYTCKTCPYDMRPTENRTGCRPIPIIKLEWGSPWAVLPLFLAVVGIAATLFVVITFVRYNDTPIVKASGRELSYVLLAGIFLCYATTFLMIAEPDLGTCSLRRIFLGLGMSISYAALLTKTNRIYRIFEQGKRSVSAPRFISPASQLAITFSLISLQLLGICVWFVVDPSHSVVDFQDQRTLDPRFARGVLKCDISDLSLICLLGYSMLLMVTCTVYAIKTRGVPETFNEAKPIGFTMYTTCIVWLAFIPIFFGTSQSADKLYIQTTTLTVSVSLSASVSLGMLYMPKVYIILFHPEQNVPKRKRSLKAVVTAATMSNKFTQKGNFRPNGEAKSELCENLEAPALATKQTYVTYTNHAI

For the compound `COc1ccc(CN2CCc3c(nc(N4CCC(C)CC4)[nH]c3=O)C2)cc1` [compound 5], at mGlu7 receptor, the Emax (in general, the greatest response seen or fitted, relative to the assay's reference) was 99% and the EC50 was 15.8 µM.
For the compound `COc1c(F)cccc1COc1ccc(C(=O)N[C@H](C)C(C)(C)C)cn1` [compound 2], the “activity in panel of mGlu1 to mGlu8 receptor activation or inactivation assays” value (“activity in panel of mGlu1” for short) in the assay on mGlu1 to mGlu8 receptor is recorded as “No activity”. On mGlu7 receptor, the Emax is 103% and the EC50 was 12.6 µM.
Take `COc1ccc(-c2cc3onc(-c4ccncc4)c3c(=O)n2C)cc1` [MMPIP]: in the assay with mGlu7 [1], the “mGlu7-ant pIC50” value is 7.
With `CC1CCN(c2nc(-c3ccncc3)nc3cnccc23)CC1` [compound 6], at mGlu7 receptor, the Emax is 65% and the EC50 was > 30.2 µM.
For the compound `CNC(=O)N1CCCC(CN2CCC(OC(c3ccccc3)c3ccccc3)CC2)C1` (stereo not shown) [compound 3], the EC50 at mGlu4 is 0.631 µM.
For the compound `CC(C)(C)OC(=O)N1CCc2ccc(-n3cc(-c4ccncc4)cn3)cc2CC1` [compound 4], the “activity in panel of mGlu1” value in the assay with mGlu1 to mGlu8 receptor is recorded as “No activity”. Moreover, at mGlu7 receptor, the Emax worked out at 57% and the EC50 was 31.6 µM.
Regarding `COc1cc(F)cc(COc2ccc(C(=O)N[C@H](C)C(C)(C)C)cn2)c1` [compound 1], the “activity in panel of mGlu1” value in the assay on mGlu1 to mGlu8 receptor was “No activity”. Moreover, on mGlu7 receptor, the Emax stood at 86% and the EC50 was 12.6 µM.
Turning to `c1ccc(C(NCCNC(c2ccccc2)c2ccccc2)c2ccccc2)cc1` [AMN-082], the “PAM activity reported in cAMP and Ca2+ assays” value in the assay with mGlu7 [2] is reported as “Active PAM reported in cAMP but not Ca2+ assays”.
